Where two headings read alike, the source gives them in different places.
Experiments:
Format in all cases: biochemical
C-src kinase = molecular target: T1, C-src kinase (Homo sapiens, UniProt P12931); assay: C-src kinase assay (poly GluTyr substrate); settings: for IC50: read-out: C-src TK IC50; for inhibition at 50 µM: read-out: C-src TK % Inhibition at 50 µM
T1 construct: made in house; host or cells: baculovirus infected insect cells
Protocol: V-src or C-src kinase is purified from baculovirus infected insect cell lysates using an antipeptide monoclonal antibody directed against the N-terminal 2-17 amino acids. The antibody, covalently linked to 0.65-µm latex beads, is added to a suspension of insect cell lysis buffer comprised of 150 mM NaCl, 50 mM Tris pH 7.5, 1 mM DTT, 1% NP-40, 2 mM EGTA, 1 mM sodium vanadate, 1 mM PMSF, 1 µg/mL each of leupeptin, pepstatin, and aprotinin. […] At the end of the lysate incubation, the beads are rinsed 3 times in lysis buffer, resuspended in lysis buffer containing 10% glycerol, and frozen. These latex beads are thawed, rinsed 3 times in assay buffer which is comprised of 40 mM tris pH 7.5, 5 mM MgCl2, and suspended in the same buffer. In a Millipore 96-well plate with a 0.65 µm polyvinylidine membrane bottom are added the reaction components: 10-µL V-src or C-src beads, 10 µL of 2.5 mg/mL poly GluTyr substrate, 5 µM ATP containing 0.2 µCi labeled ^32P-ATP, 5µL DMSO containing inhibitors or as a solvent control, and buffer to make the final volume 125 µL. The reaction is started at room temperature by addition of the ATP and quenched 10 minutes later by the addition of 125 µL of 30% TCA, 0.1 M sodium pyrophosphate for 5 minutes on ice. […] The filters are punched, counted in a liquid scintillation counter, and the data examined for inhibitory activity in comparison to a known inhibitor such as erbstatin.

[1] = molecular target: T2, mouse PDGF-β receptor tyrosine kinase (Mus musculus, UniProt P05622); assay: PDGF receptor tyrosine kinase assay (32P incorporation into glutamate-tyrosine co-polymer); settings: for IC50: read-out: PDGFr-TK IC50; for inhibition at 50 µM: read-out: PDGFr-TK % Inhibition at 50 µM
T2 construct: amplify a fragment of DNA that codes for the intracellular tyrosine kinase domain; made in house; host or cells: SF9 insect cells (baculovirus)
T2 sequence (P05622 599-961 limits assumed): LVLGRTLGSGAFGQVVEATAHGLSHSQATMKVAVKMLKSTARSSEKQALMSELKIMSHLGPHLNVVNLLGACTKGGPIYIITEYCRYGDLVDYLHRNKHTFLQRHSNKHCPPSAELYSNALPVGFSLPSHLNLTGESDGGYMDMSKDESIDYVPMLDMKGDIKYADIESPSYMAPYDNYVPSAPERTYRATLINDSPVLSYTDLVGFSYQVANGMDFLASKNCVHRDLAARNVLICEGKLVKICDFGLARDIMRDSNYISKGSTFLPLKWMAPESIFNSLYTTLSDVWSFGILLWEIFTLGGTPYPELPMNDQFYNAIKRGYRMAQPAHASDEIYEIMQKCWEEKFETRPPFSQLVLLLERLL
Text: (§1) Full length cDNAs for the mouse PDGF-β and human FGF-1 (flg) receptor tyrosine kinases were obtained from J. Escobedo and prepared as described in J. Biol. Chem., 262:1482-1487 […], and PCR primers were designed to amplify a fragment of DNA that codes for the intracellular tyrosine kinase domain. The fragment was melded into a baculovirus vector, cotransfected with AcMNPV DNA, and the recombinant virus isolated. SF9 insect cells were infected with the virus to overexpress the protein, and the cell lysate was used for the assay. The assay was performed in 96-well plates (100 µL/incubation/well), and conditions were optimized to measure the incorporation of ^32P from γ^32P-ATP into a glutamate-tyrosine co-polymer substrate. Briefly, to each well was added 82.5 µL of incubation buffer containing 25 mM Hepes (pH 7.0), 150 mM NaCl, 0.1% Triton X-100, 0.2 mM PMSF, 0.2 mM Na3VO4, 10 mM MnCl2, and 750 µg/mL of Poly (4:1) glutamate-tyrosine followed by 2.5 µL of inhibitor and 5µL of enzyme lysate (7.5 µg/µL FGF-TK or 6.0 µg/µL PDGF-TK) to initiate the reaction. Following a 10 minute incubation at 25°C, 10 µL of γ^32P-ATP (0.4 µCi plus 50 µM ATP) was added to each well and samples were incubated for an additional 10 minutes at 25°C. The reaction was terminated by the addition of 100 µL of 30% trichloroacetic acid (TCA) containing 20 mM sodium pyrophosphate and precipitation of material onto glass fiber filter mats (Wallac). […] Nonspecific activity was defined as radioactivity retained on the filters following incubation of samples with buffer alone (no enzyme). Specific enzymatic activity was defined as total activity (enzyme plus buffer) minus nonspecific activity.

[2] = molecular target: T3, Human EGF receptor tyrosine kinase (Homo sapiens, UniProt P00533); assay: EGF receptor tyrosine kinase enzyme assay (substrate peptide phosphorylation); settings: for IC50: read-out: EGF-FL IC50; for inhibition at 50 µM: read-out: EGF-FL % Inhibition at 50 µM
T3 construct: Human EGF receptor tyrosine kinase was isolated from A431 epidermoid carcinoma cells; endogenous in cells; host or cells: A431 epidermoid carcinoma cells
T3 sequence (P00533 25-1210): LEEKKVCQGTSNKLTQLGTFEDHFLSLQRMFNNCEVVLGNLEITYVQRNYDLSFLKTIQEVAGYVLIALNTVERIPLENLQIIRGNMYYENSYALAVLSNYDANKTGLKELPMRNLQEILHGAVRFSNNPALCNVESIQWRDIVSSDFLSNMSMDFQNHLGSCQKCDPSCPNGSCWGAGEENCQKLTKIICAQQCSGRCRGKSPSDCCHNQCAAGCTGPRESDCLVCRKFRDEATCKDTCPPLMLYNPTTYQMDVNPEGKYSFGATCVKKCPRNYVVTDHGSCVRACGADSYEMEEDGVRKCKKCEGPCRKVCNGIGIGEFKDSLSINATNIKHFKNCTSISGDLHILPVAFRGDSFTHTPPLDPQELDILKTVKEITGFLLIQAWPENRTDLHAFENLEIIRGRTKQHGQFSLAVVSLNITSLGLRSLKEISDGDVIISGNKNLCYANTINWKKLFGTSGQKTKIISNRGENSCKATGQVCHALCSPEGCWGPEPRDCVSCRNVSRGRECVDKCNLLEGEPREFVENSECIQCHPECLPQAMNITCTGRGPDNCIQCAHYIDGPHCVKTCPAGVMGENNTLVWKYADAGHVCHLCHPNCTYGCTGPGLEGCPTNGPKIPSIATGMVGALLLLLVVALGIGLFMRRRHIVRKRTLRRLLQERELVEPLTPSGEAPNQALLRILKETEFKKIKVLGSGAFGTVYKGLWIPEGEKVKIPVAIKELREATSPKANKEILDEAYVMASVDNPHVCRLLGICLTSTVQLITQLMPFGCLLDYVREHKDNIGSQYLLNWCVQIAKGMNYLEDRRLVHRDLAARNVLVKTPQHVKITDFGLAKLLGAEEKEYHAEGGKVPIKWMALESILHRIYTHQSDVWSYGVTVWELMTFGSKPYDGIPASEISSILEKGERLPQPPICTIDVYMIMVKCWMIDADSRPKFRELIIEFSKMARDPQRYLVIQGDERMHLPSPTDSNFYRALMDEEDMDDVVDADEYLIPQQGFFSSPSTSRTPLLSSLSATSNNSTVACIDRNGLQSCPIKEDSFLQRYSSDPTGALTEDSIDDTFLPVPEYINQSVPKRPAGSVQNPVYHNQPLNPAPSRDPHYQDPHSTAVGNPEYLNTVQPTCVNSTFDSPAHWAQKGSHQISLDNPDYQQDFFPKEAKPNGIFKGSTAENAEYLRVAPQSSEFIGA
Protocol: Human EGF receptor tyrosine kinase was isolated from A431 epidermoid carcinoma cells by the following methods. Cells were grown in roller bottles in 50% Dulbecco's Modified Eagle medium and 50% HAM F-12 nutrient media (Gibco) containing 10% fetal calf serum. Approximately 10^9 cells were lysed in two volumes of buffer containing 20 mM 2-(4N-[2-hydroxymethyl]-piperazin-1-yl)ethanesulfonic acid, pH 7.4, 5 mM ethylene glycol bis(2-aminoethyl ether) N,N,N',N'-tetraacetic acid, 1% Triton X-100, 10% glycerol, 0.1 mM sodium orthovanadate, 5 mM sodium fluoride, 4 mM pyrophosphate, 4 mM benzamide, 1 mM dithiothreitol, 80 µg/mL aprotinin, 40 µg/mL leupeptin, and 1 mM phenylmethylsulfonyl fluoride. […] Contaminating proteins were washed from the resin with 1 M NaCl in equilibration buffer, and the enzyme was eluted with 0.5 M N-acetyl-1-D-glucosamine in equilibration buffer.
The reaction was terminated by the addition of 2 mL of 75 mM phosphoric acid and passed through a 2.5-cm phosphocellulose filter disc to bind the peptide. The filter was washed 5 times with 75 mM phosphoric acid and placed in a vial along with 5 mL of scintillation fluid (Ready gel Heckman).

[3] = molecular target: T4, human FGF-1 (flg) receptor tyrosine kinase (Homo sapiens, UniProt P11362); assay: FGF receptor tyrosine kinase assay (32P incorporation into glutamate-tyrosine co-polymer); settings: for inhibition at 50 µM: read-out: FGFr-TK % Inhibition at 50 µM
T4 construct: amplify a fragment of DNA that codes for the intracellular tyrosine kinase domain; made in house; host or cells: SF9 insect cells (baculovirus)
T4 sequence (P11362 478-767 limits assumed): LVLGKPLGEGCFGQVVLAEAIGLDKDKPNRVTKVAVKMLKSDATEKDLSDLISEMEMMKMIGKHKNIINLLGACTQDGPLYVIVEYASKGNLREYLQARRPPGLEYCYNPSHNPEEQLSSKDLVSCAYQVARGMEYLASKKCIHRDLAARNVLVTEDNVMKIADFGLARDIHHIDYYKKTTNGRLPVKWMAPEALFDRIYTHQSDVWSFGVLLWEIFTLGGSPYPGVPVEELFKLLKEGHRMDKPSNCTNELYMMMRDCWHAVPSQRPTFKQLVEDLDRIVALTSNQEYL
Text: as §1

T1 sequence (P12931 whole entry): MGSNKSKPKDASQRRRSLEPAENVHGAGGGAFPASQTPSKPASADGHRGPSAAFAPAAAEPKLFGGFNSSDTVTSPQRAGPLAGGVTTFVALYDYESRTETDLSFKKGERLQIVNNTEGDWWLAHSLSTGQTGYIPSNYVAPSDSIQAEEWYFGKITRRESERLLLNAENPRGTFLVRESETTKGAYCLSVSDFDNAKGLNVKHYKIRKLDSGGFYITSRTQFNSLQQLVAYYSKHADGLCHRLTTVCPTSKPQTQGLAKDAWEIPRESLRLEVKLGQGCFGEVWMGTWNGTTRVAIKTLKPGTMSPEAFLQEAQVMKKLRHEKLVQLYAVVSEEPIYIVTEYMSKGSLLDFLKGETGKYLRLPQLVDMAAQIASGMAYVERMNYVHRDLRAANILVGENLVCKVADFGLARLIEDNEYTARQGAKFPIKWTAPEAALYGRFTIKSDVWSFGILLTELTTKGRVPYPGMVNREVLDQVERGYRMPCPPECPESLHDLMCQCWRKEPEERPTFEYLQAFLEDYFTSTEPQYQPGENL

| Compound | IC50 (C-src kinase) | IC50 [1] | IC50 [2] | IC50 ([3]; read-out: FGFr-TK IC50) | inhibition at 50 µM [2] | inhibition at 50 µM (C-src kinase) | inhibition at 50 µM [1] | inhibition at 50 µM [3] | IC50 [3] |
| --- | --- | --- | --- | --- | --- | --- | --- | --- | --- |
| COC(=O)Cn1c(=O)c(-c2c(Cl)cccc2Cl)cc2cnc(N)nc21 [Example 35, [2-Amino-6-(2,6-dichlorophenyl)-7-oxo-7H-pyrido[2,3-d]-pyrimiclin-8-yl]-acetic acid methyl ester] | 340 nM | 3570 nM | 1200 nM | 1910 nM | – | – | – | – | – |
| CCNc1ncc2cc(-c3c(Cl)cccc3Cl)c(=O)n(C)c2n1 [Example 42, 6-(2,6-Dichlorophenyl)-2-ethylamino-8-methyl-8H-pyrido[2,3-d]dlpyrimidin-7-one] | 588 nM | 4490 nM | – | 800 nM | 82% | – | – | – | – |
| CCn1c(=O)c(-c2c(Cl)cccc2Cl)cc2cnc(Nc3ccc(O)cc3)nc21 [Example 75, 6-(2,6-Dichlorophenyl)-8-ethyl-2-(4-hydroxyphenylamino)-8H-pyrido[2,3-d]pyrimidin-7-one] | – | 353 nM | 21 nM | 141 nM | – | 0% | – | – | – |
| CN(C)c1ncc2cc(-c3c(Cl)cccc3Cl)c(=O)n(C)c2n1 [Example 41, 6-(2,6-Dichlorophenyl)-2-dimethylamino-8-methyl-8H-pyrido[2,3-d]pyrimidin-7-one] | – | – | – | – | 52% | 12% | 16% | 0% | – |
| COc1ccc(Nc2ncc3cc(-c4c(Cl)cccc4Cl)c(=O)n(C)c3n2)cn1 [Example 85, 6-(2,6-Dichlorophenyl)-2-(6-methoxypyridin-3-ylamino)-8-methyl-8H-pyrido[2,3-d]pyrimidin-7-one] | 13 nM | 370 nM | 1320 nM | 560 nM | – | – | – | – | – |
| CCCCNc1ncc2cc(-c3c(Cl)cccc3Cl)c(=O)n(C)c2n1 [Example 45, 2-Butylamino-6-(2,6-dichlorophenyl)-8-methyl-8H-pyrido[2,3-d]pyrimidin-7-one] | 2390 nM | 5680 nM | – | 4040 nM | 85% | – | – | – | – |
| Nc1ncc2cc(-c3c(Cl)cccc3Cl)c(=O)n(Cc3ccccc3)c2n1 [Example 108, 2-Amino-8-benzyl-6-(2,6-dichlorophenyl)-8H-pyrido[2,3-d]pyrimidin-7-one] | 158 nM | 5050 nM | – | 1190 nM | 87% | – | – | – | – |
| Nc1ncc2cc(-c3c(Cl)cccc3Cl)c(=O)n(CCCc3ccccc3)c2n1 [Example 114, 2-Amino-6-(2,6-dichlorophenyl)-8-(3-phenylpropyl)-8H-pyrido[2,3-d]pyrimidin-7-one] | 1090 nM | 5170 nM | 3200 nM | 3310 nM | – | – | – | – | – |
| Nc1ncc2cc(-c3c(Cl)cccc3Cl)c(=O)n(Cc3cccc(Br)c3)c2n1 [Example 109, 2-Amino-8-(3-bromobenzyl)-6-(2,6-dichlorophenyl)-8H-pyrido[2,3-d]pyrimidin-7-one] | 240 nM | 9290 nM | 62 nM | 3370 nM | – | – | – | – | – |
| CC(C)Cn1c(=O)c(-c2c(Cl)cccc2Cl)cc2cnc(N)nc21 [Example 33, 2-Amino-6-(2,6-dichlorophenyl)-8-isobutyl-8H-pyrido[2,3-d]pyrimidin-7-one] | 890 nM | 1840 nM | – | 426 nM | 95% | – | – | – | – |
| Cn1c(=O)c(-c2c(Cl)cccc2Cl)cc2cnc(NCCc3ccccn3)nc21 [Example 51, 6-(2,6-Dichlorophenyl)-8-methyl-2-(2-pyridin-2-yl-ethylamino)-8H-pyrido[2,3-d]pyrimidin-7-one] | 1570 nM | 7160 nM | – | 8030 nM | 55% | – | – | – | – |
| CCCCn1c(=O)c(-c2c(Cl)cccc2Cl)cc2cnc(N)nc21 [Example 32, 2-Amino-8-butyl-6-(2,6-dichlorophenyl)-8H-pyrido[2,3-d]pyrimidin-7-one] | – | 875 nM | – | 737 nM | 100% | 33% | – | – | – |
| Cn1c(=O)c(-c2c(Cl)cccc2Cl)cc2cnc(NCc3ccccn3)nc21 [Example 49, 6-(2,6-Dichlorophenyl)-8-methyl-2-[(pyridin-2-ylmethyl)-amino]-8H-pyrido[2,3-d]pyrimidin-7-one] | 813 nM | 4650 nM | – | 4010 nM | 61% | – | – | – | – |
| CCn1c(=O)c(-c2c(Cl)cccc2Cl)cc2cnc(Nc3ccc(OC)c(OC)c3)nc21 [Example 77, 6-(2,6-Dichlorophenyl)-2-(3,4-dimethoxyphenylamino)-8-ethyl-8H-pyrido[2,3-d]pyrimidin-7-one] | 19 nM | 1110 nM | 94 nM | 124 nM | – | – | – | – | – |
| COc1ccc(Nc2ncc3cc(-c4c(Cl)cccc4Cl)c(=O)n(C)c3n2)cc1C [Example 73, 6-(2,6-Dichlorophenyl)-2-(4-methoxy-3-methylphenylamino)-8-methyl-8H-pyrido[2,3-d]pyrimidin-7-one] | 37 nM | 1300 nM | 160 nM | 450 nM | – | – | – | – | – |
| CCCn1c(=O)c(-c2c(Cl)cccc2Cl)cc2cnc(N)nc21 [Example 31, 2-Amino-6-(2,6-dichlorophenyl)-8-propyl-8H-pyrido[2,3-d]pyrimidin-7-one] | – | 1200 nM | – | 460 nM | 100% | 100% | – | – | – |
| CCn1c(=O)c(-c2c(Cl)cccc2Cl)cc2cnc(Nc3cc(OC)c(OC)c(OC)c3)nc21 [Example 78, 6-(2,6-Dichlorophenyl)-8-ethyl-2-(3,4,5-trimethoxyphenylamino)-8H-pyrido[2,3-d]pyrimidin-7-one] | – | 1690 nM | 97 nM | 143 nM | – | 46% | – | – | – |
| CSc1ncc2cc(-c3c(Cl)cccc3Cl)c(=O)n(C)c2n1 [Example 37, 6-(2,6-Dichlorophenyl)-8-methyl-2-methylsulfanyl-8H pyrido[2,3-d]pyrimidin-7-one] | – | – | – | – | 42% | 33% | 33% | 29% | – |
| COc1cc(Nc2ncc3cc(-c4c(Cl)cccc4Cl)c(=O)n(C)c3n2)cc(OC)c1 [Example 83, 6-(2,6-Dichlorophenyl)-2-(3,5-dimethoxypherlylamino)-8-methyl-8H-pyrido[2,3-d]pyrimidin-7-one] | 19 nM | 1180 nM | 59 nM | – | – | – | – | – | 333 nM |
| Cn1c(=O)c(-c2c(Cl)cccc2Cl)cc2cnc(NCCO)nc21 [Example 43, 6-(2,6-Dichlorophenyl)-2-(2-hydroxyethylamino)-8-methyl-8H-pyrido[2,3-d]pyrimidin-7-one] | 325 nM | 5350 nM | – | 1350 nM | 67% | – | – | – | – |

Source: patent publication EP0823908B1, “PYRIDO[2,3-d]PYRIMIDINES FOR INHIBITING PROTEIN TYROSINE KINASE MEDIATED [sequence] PROLIFERATION” (Warner-Lambert Company LLC, priority 1995, dated 1996)
